Source: PMC8058616 (Bioorganic & medicinal chemistry, 2021)
Like-named read-outs stand apart in the source and are kept apart here.

Key:
KB human tumor cells [1] = test: Nucleoside/AICA protection of KB cell proliferation; settings: AICA 320 μM
[2] = test system: PC43–10 CHO cells (human RFC); settings: read-out: IC50 PC43–10 (RFC); 96 h; mean (SE); previously published ref 7, 40; cited from earlier work
KB human tumor cells [3] = settings: AICA 320 μM, as previously reported ref 40; cited from earlier work
[4] = test system: NCI-IGROV1 ovarian cancer cells; test: Proliferation assay, NCI-IGROV1 EOC cells; assay type: cell-based, human; settings: 96 h; for IC50: Homo sapiens
[5] = test system: KB nasopharyngeal carcinoma cells; test: Proliferation assay, KB human tumor cells; assay type: cell-based; settings: 96 h, read-out: IC50 KB (+FA)
[6] = test system: PC43–10 CHO cells (human RFC); test: Proliferation assay, RFC-expressing PC43–10 CHO cells; settings: PC43-10, 96 h, read-out: IC50 PC43–10 (RFC)
NCI-IGROV1 EOC cells = test: Targeted metabolomics; assay type: cell-based, human; settings: 1 μM inhibitor, 48 h; for Increase in ZMP (AICAR) level: relative to control
human GARFTase = biological target: T1, human GARFTase (Homo sapiens, UniProt P22102); test: In vitro spectrophotometric GARFTase assay with purified enzyme; assay type: biochemical; settings: ratio of Ki values
T1 sequence (P22102 808-1010): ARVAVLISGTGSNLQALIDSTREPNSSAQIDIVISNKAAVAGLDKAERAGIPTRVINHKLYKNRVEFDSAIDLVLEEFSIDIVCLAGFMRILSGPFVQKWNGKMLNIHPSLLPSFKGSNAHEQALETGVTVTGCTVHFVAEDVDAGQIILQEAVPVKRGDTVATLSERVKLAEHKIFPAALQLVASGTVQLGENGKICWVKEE

[7] = biological target: human AICARFTase/IMP cyclohydrolase (ATIC) (Homo sapiens, UniProt P31939); test: In vitro spectrophotometric AICARFTase; assay type: biochemical; settings: ratio of Ki values
human AICARFTase/IMP cyclohydrolase (ATIC), sequence (P31939 whole entry): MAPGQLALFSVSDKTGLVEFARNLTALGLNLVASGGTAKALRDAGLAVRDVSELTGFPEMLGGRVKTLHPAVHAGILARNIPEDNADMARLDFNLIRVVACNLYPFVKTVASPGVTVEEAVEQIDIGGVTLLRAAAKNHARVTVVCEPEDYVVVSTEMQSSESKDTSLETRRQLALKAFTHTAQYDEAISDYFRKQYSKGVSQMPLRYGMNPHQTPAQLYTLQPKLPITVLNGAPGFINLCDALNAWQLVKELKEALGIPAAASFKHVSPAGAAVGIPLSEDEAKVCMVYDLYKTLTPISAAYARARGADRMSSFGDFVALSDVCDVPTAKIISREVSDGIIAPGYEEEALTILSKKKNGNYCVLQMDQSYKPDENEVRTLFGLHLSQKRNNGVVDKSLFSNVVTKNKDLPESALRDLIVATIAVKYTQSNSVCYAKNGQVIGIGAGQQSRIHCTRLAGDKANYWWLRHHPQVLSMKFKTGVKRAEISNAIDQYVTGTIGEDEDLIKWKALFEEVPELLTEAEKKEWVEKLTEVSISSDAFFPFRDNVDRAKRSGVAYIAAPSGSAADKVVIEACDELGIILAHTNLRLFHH

[8] = read-out: IC50 NCI-IGROV1 (+FA)
[9] = read-out: IC50 NCI-IGROV1 (RFC/FRα/PCFT)

SMILES	IC50 [4, 8] [µM]	IC50 [5] [µM]	IC50 [6] [µM]	other results
Nc1nc2[nH]cc(CCCCc3ccc(C(=O)N[C@@H](CCC(=O)O)C(=O)O)cc3)c2c(=O)[nH]1 [AGF23]	–	–	–	Protection by AICA (KB human tumor cells [1]): completely protected
Nc1nc2sc(CCCCc3ccc(C(=O)N[C@@H](CCC(=O)O)C(=O)O)cc3)cc2c(=O)[nH]1 [Compound 2]	–	–	–	IC50 [2]: > 1 µM; Protection by AICA (KB human tumor cells [3]): incomplete protection
Nc1nc2sc(CCCCc3ccc(C(=O)N[C@@H](CCC(=O)O)C(=O)O)s3)cc2c(=O)[nH]1 [Compound 3, (5-(4-(2-amino-4-oxo-3,4-dihydrothieno[2,3-d]pyrimidin-6-yl)butyl)thiophene-2-carbonyl)-L-glutamic acid]	> 1	> 1	> 1	fGAR level, % of control (NCI-IGROV1 EOC cells): ~ 50 % of control; Increase in ZMP (AICAR) level (NCI-IGROV1 EOC cells): 2 fold
Nc1nc2sc(CCCCc3ccc(C(=O)N[C@@H](CCC(=O)O)C(=O)O)o3)cc2c(=O)[nH]1 [Compound 4, (5-(4-(2-amino-4-oxo-3,4-dihydrothieno[2,3-d]pyrimidin-6-yl)butyl)furan-2-carbonyl)-L-glutamic acid]	> 1	> 1	> 1	IC50 [4, 9]: > 1 µM
Nc1nc2sc(CCCc3ccc(C(=O)N[C@@H](CCC(=O)O)C(=O)O)s3)cc2c(=O)[nH]1 [Compound 5, (5-(3-(2-amino-4-oxo-3,4-dihydrothieno[2,3-d]pyrimidin-6-yl)propyl)thiophene-2-carbonyl)-L-glutamic acid]	> 1	> 1	> 1	fGAR level, % of control (NCI-IGROV1 EOC cells): ~ 75 % of control; Increase in ZMP (AICAR) level (NCI-IGROV1 EOC cells): 3 fold
Nc1nc2sc(CCCc3csc(C(=O)N[C@@H](CCC(=O)O)C(=O)O)c3)cc2c(=O)[nH]1 [Compound 6, (4-(3-(2-amino-4-oxo-3,4-dihydrothieno[2,3-d]pyrimidin-6-yl)propyl)thiophene-2-carbonyl)-L-glutamic acid]	> 1	> 1	> 1	–
Nc1nc2sc(CCCc3cc(C(=O)N[C@@H](CCC(=O)O)C(=O)O)cs3)cc2c(=O)[nH]1 [Compound 7, (5-(3-(2-amino-4-oxo-3,4-dihydrothieno[2,3-d]pyrimidin-6-yl)propyl)thiophene-3-carbonyl)-L-glu-tamic acid]	> 1	> 1	> 1	–
Nc1nc2sc(CCCCc3cc(C(=O)N[C@@H](CCC(=O)O)C(=O)O)cs3)cc2c(=O)[nH]1 [Compound 8, (5-(4-(2-amino-4-oxo-3,4-dihydrothieno[2,3-d]pyrimidin-6-yl)butyl)thiophene-3-carbonyl)-L-glutamic acid]	> 1	> 1	> 1	Fold decreased GARFTase Ki over lead compound 2 (human GARFTase): ~ 20 fold; IC50 NCI-IGROV1 (RFC/FRα/PCFT) ([4]; without folic acid, mean (SE)): inert; IC50 [4, 9]: > 1 µM; Fold decreased AICARFTase Ki over lead compound 2 [7]: ~ 9 fold
Nc1nc2sc(CCCCc3csc(C(=O)N[C@@H](CCC(=O)O)C(=O)O)c3)cc2c(=O)[nH]1 [Compound 9, (4-(4-(2-amino-4-oxo-3,4-dihydrothieno[2,3-d]pyrimidin-6-yl)butyl)thiophene-2-carbonyl)-L-glutamic acid]	> 1	> 1	> 1	–
